Experimental data reported in patent US12534699B2, “Method for promoting growth of bacteria of genus Bifidobacterium” (KABUSHIKI KAISHA YAKULT HONSHA, priority 2019, dated 2026).

Legend:
[1] = tested on: Bifidobacterium bifidum YIT 10347 (BF-1); assay: Culture of BF-1 in skimmed milk culture medium with L-cystine or L-cysteine; assay type: cell-based; conditions: for viable cell count and acidity versus culture medium not containing L-cystine and L-cysteine: BF-1, simultaneous heating culture medium (skimmed milk or whey), 0.001 to 0.1% (w/v), FIGS. 5 and 6; for concentration at which the viable cell count was maximum: BF-1, skimmed milk simultaneous heating culture medium, 12 hours
Description: Bifidobacterium breve YIT 12272 (hereinafter, referred to as BbY), Bifidobacterium bifidum YIT 10347 (hereinafter, referred to as BF-1), Lactobacillus casei YIT 9029 (hereinafter, referred to as YIT 9029), and Lactobacillus acidophilus YIT 0198 (hereinafter, referred to as YIT 0198) were used.
A skimmed milk powder (ABC, manufactured by MEGMILK SNOW BRAND Co., Ltd.) was dissolved in RO water at 12% (w/v), the solution was dispensed in 10 mL aliquots in a rimmed medium-sized test tube while replacing the headspace with nitrogen gas and sealed with a butyl rubber stopper. Subsequently, the solution was sterilized by heat in an autoclave (SX-500, manufactured by Tomy Seiko Co., Ltd.) at 115° C. for 30 minutes to provide a skimmed milk culture medium (additive-free culture medium). In addition, a skimmed milk culture medium (simultaneous heating culture medium) was prepared in anaerobic conditions by adding an L-cystine (manufactured by Kyowa Hakko Bio Co., Ltd.) aqueous suspension or an L-cysteine hydrochloride (manufactured by Nichiri Kagaku Co., Ltd.) aqueous solution to a skimmed milk culture medium at a final concentration of 0.05 (w/v) % and performing heat sterilization after the addition of the suspension or the solution, and a skimmed milk culture medium (individual heating culture medium) was prepared in anaerobic conditions by adding the suspension or the solution to a skimmed milk culture medium at a final concentration of 0.05 (w/v) % after heat sterilization and immediately before inoculation. Here, the L-cystine aqueous suspension and the L-cysteine hydrochloride aqueous solution were prepared as a 5% (w/v) aqueous suspension and a 5% (w/v) aqueous solution, respectively, and were added to each culture medium at an amount of 1% (v/v). In order to unify the changes in the concentration and the changes in the redox potential of samples due to the addition of the solution, 1% (v/v) of sterilized water was added to the simultaneous heating culture medium immediately before inoculation, to the individual heating culture medium before heating, and to the additive-free culture medium before heating and immediately before inoculation, i.e., twice.
When bacteria were inoculated, inoculation was performed while replacing the headspace of the container with nitrogen gas, and the nitrogen gas was sealed with a butyl rubber stopper, followed by culture. The culture was performed in a thermostat water bath set to 37° C. for 12 hours.
The pH of a culture medium or a bacterial solution was measured using a desk-top pH meter (F52, manufactured by HORIBA, Ltd.).
The amount of a 0.1 N sodium hydroxide aqueous solution for 9.0 g of a bacterial solution required to reach a pH of 8.5 was defined as acidity. The measurement was performed using an automatic titrator (manufactured by HIRANUMA Co., Ltd.).
Regardless of the bacterial strain, a bacterial solution was appropriately diluted with a 0.85% (w/v) sodium chloride aqueous solution (physiological saline solution). The diluted bacterial solution was inoculated with a spiral plater EDDY JET (manufactured by IUL Instruments GmbH) on a plate culture medium of TOS propionate agar medium (manufactured by Yakult Pharmaceutical Industry Co., Ltd.) in the case of bacteria of the genus Bifidobacterium and a plate culture medium of BCP Added Plate Count medium (manufactured by EIKEN CHEMICAL CO., LTD.) in the case of bacteria of the genus Lactobacillus, followed by culture at 37° C. for 48 to 72 hours. The grown colonies were counted as the viable cell count. The bacteria of the genus Lactobacillus were cultured in aerobic conditions, and the bacteria of the genus Bifidobacterium were cultured in anaerobic conditions (Anaero Pack, manufactured by MITSUBISHI GAS CHEMICAL COMPANY, INC.). Colonies were counted using a colony counter ProtoCOL (manufactured by Synoptics Ltd.).
As in Example 1, each simultaneous heating culture medium of milk and L-cystine or L-cysteine was prepared. […]

[2] = tested on: Bifidobacterium bifidum YIT 10347 (BF-1); assay: Culture of BF-1 in whey culture medium with L-cystine or L-cysteine; assay type: cell-based; conditions: BF-1, whey simultaneous heating culture medium, 12 hours
Description: A skimmed milk powder was dissolved in RO water at 12% (w/v), and the 12% (w/v) skimmed milk was adjusted to a pH of 4.6 with 5 N HCl, followed by centrifugation at 3,000×g for 5 minutes. Subsequently, the supernatant was adjusted to a pH of 6.5 with 5 N NaOH and was centrifuged at 10,000×g for 15 to 30 minutes. The supernatant was dispensed in 10 mL aliquots in a rimmed medium-sized test tube while replacing the headspace with nitrogen gas and sealed with a butyl rubber stopper. Subsequently, the supernatant was sterilized by heat in an autoclave at 115° C. for 30 minutes to provide a whey culture medium separated before heating. In addition, as in the skimmed milk culture medium, simultaneous heating culture medium was prepared in anaerobic conditions by adding L-cystine or L-cysteine before heating and then performing heat sterilization. The addition concentration of L-cystine or L-cysteine was adjusted to 0.001, 0.003, 0.005, 0.01, 0.03, 0.05, or 0.1% (w/v) as the final concentration.
Inoculation and culture were performed as in Example 1 except that only when BbY was cultured in the skimmed milk culture medium, the culture time was 9 hours.

[3] = BF-1, skimmed milk, 0.05 (w/v) %, cultured 12 hours

SMILES: Cl.N[C@@H](CS)C(=O)O [L-cysteine, L-cysteine hydrochloride]
- viable cell count and acidity versus culture medium not containing L-cystine and L-cysteine [1]: increased
- concentration at which the viable cell count was maximum [1]: 0.05 % (w/v)
- concentration at which the viable cell count was maximum [2]: 0.03 % (w/v)

SMILES: N[C@@H](CSSC[C@H](N)C(=O)O)C(=O)O [L-cystine]
- viable cell count and acidity versus culture medium not containing L-cystine and L-cysteine [1]: increased
- concentration at which the viable cell count was maximum [1]: 0.1 % (w/v)
- acidity higher with simultaneous heating than individual heating [1, 3]: 1.3 times
- viable cell count higher with simultaneous heating than individual heating [1, 3]: 4.5 times
- concentration at which the viable cell count was maximum [2]: 0.03 % (w/v)
